According to ChEMBL document CHEMBL6177996 (J Med Chem, 2025):
Values after ≈ are worked out from the molar mass of the structure shown.

Test: physchem
Conditions: water

C=CC(=O)NCc1cc(C(=O)NCc2c(SC)cc(C)[nH]c2=O)c(C)c(N(CC)C2CCOCC2)c1 showed a solubility of 166 µg/mL (≈ 324 µM).
